# Results: patent publication US20110160213A1, “PHARMACEUTICAL COMPOSITIONS FOR THE TREATMENT OF INFLAMMATORY AND ALLERGIC DISORDERS” (Glenmark Pharmaceuticals, S.A., priority 2007, published 2011)
# Experiment: Solubility by shake flask method in various media
# Format: physicochemical
# Conditions: for Solubility: about 37° C., after 24 hours
smiles,measurement,setting,value
"O=C(Nc1c(Cl)c[n+]([O-])cc1Cl)c1ccc(OC(F)F)c2oc3ccncc3c12.[Na] [3,5-dichloro-4-(6-difluoromethoxybenzo[4,5]furo[3,2-c]pyridin-9-ylcarboxamido)-1-pyridiniumolate, sodium salt]",Solubility,0.1N HCl with 1% sodium lauryl sulphate,8.81 mg/250 ml
same,Solubility,0.1N HCl,9.17 mg/250 ml
same,Solubility,Acetate buffer pH 4.5,1.69 mg/250 ml
same,Solubility,Acetate buffer pH 4.5 with 0.1% SLS,4.81 mg/250 ml
same,Solubility,Citrate buffer pH 3.0,6.02 mg/250 ml
same,Solubility,Citrate buffer pH 3.0 with 1% Triton X,8.6 mg/250 ml
same,Solubility,Water,0.68 mg/250 ml
same,Solubility in water (in words),water,poor solubility in water
